From patent US12269800B2, “Delivery of therapeutic alkaloid compounds” (priority 2021, dated 2025)
Read-outs that look alike come from different tables or passages of the source.

How the values were obtained:
[1] = type: physicochemical
Experimental: The hydrolysis kinetics was under a certain temperature and measured by LCMS at a certain time interval. The corresponding LCMS chromatograms were recorded and the conversions were calculated. The hydrolysis conditions and the data were summarized in below table. LCMS spectra were obtained using Agilent 1200G1956A or SHIMADZU LCMS-2020. Standard LCMS conditions were as follows (running time 1.55 minutes):
Acidic condition: Mobile Phase A: 0.0375% TFA in water (v/v). Mobile Phase B: 0.01875% TFA in acetonitrile (v/v); Column: Kinetex EVO C18 30*2.1 mm, 5 μm.
Basic condition: Mobile Phase A: 0.025% NH3—H2O in water (v/v). Mobile Phase B: Acetonitrile; Column: Kinetex EVO C18 2.1×30 mm, 5 μm.
Conversion (%)=peak area 1/(peak area 1+peak area 2)*100%, peak area 1 is the integration of hydrolyzed product, peak area 2 is the integration of starting material.

SERT = target: T1, SERT (Homo sapiens, UniProt P31645); assay: cell-based; conditions: stable 5HTT cells, 30 minutes at 37° C.
T1 construct: expressed in transfected cells

[2] = in vivo; cited from earlier work
[3] = Plasma Stability Assay of Example A3, human plasma; conditions: % of prodrug compound remaining, 37° C., 0.0 min
[4] = Plasma Stability Assay of Example A3, mouse plasma; conditions: % of prodrug compound remaining, 37° C., 0.0 min
[5] = Pharmacokinetics of 043 and 001 in mice after oral 043 (75 mg/kg); type: in vivo, male C57BL/6 mice; conditions: analyte as labelled, single oral administration of 043, 75 mg/kg
Experimental: Total twelve male mice were used in this study. […] The formulation vehicle used was normal saline.
The plasma and brain concentration-time data of 043 and 001 was used for the pharmacokinetic analysis.
The extraction procedure for plasma/brain samples and the spiked plasma/brain calibration standards were identical:
A 25 μL of study sample plasma/brain (dilution applied to some samples) or spiked plasma calibration standard was added to individual pre-labeled micro-centrifuge tubes followed by 100 μL of internal standard prepared in acetonitrile (Glipizide-500 ng/mL) was added except for blank, where 100 μL of acetonitrile was added. Samples were vortexed for 5 minutes. Samples were centrifuged for 10 minutes at a speed of 4000 rpm at 4° C. Following centrifugation, 100 μL of clear supernatant was transferred in 96 well plates and analyzed using LC-MS/MS.

[6] = remark: listed apart in the source
Experimental: General Procedure for intravenous pharmacokinetic study in mice: Male C57/BL6 mice were used to evaluate each compound, with n=3 mice/time point. Animals were administered through intravenous route with solution formulation at 2 mg/kg dose. […] Following blood collection, immediately, animals were sacrificed, and vena-cava was cut open and blood was drained. […] Brain samples were collected from set of three mice at each time point. […] Brain samples were homogenized using 2 volumes of ice-cold PBS (pH-7.4) of brain weight. […] Concentrations of compound (or compound and metabolite) in mouse plasma and brain samples were determined by fit for purpose LC-MS/MS method.

[7] = Oral dose pharmacokinetic study in mice (10 mg/kg)
Experimental: Total thirty-five male mice were used for each study with n=5 mice/time point. Animals were administered through oral route with solution formulation at 10 mg/kg dose. The formulation vehicle used was normal saline. […] Brain samples were collected from set of five mice at 0.083, 0.25, 0.50, 1.0, 1.5, 2.0 and 3.0 h.
The plasma and brain concentration-time data of 001 was used for the pharmacokinetic analysis.

[8] = Hydrolysis Assay of Example A2, Condition 1 (SGF with pepsin, pH 1.5, 37° C.); type: physicochemical
[9] = Plasma Stability Assay of Example A4, rat plasma; conditions: 37° C., % prodrug remaining
[10] = Plasma Stability Assay of Example A4, human plasma; conditions: 37° C., % prodrug remaining
[11] = 2 mg/kg iv in rat
Experimental: Brain samples were homogenized with PBS (W/V, 1:3). Plasma/brain samples were mixed with acetonitrile containing internal standard. The samples were vortexed then centrifuged at 4 degrees Celsius for 15 minutes. The supernatant was diluted with water (1:2 V/V) and analyzed by LC/MS/MS for quantitative analysis. […] Area under the curve (AUC) was calculated and divided by dose to account for molecular weight difference of prodrug and metabolite (AUC/D).

[12] = type: physicochemical; conditions: DI water, 25° C., 0.5 mM
[13] = fermentation, exposure to light, exposure to heat, aqueous medium; cited from earlier work
[14] = 10 mg/kg po of the labelled compound in mice

T1 sequence (P31645 whole entry, species assumed): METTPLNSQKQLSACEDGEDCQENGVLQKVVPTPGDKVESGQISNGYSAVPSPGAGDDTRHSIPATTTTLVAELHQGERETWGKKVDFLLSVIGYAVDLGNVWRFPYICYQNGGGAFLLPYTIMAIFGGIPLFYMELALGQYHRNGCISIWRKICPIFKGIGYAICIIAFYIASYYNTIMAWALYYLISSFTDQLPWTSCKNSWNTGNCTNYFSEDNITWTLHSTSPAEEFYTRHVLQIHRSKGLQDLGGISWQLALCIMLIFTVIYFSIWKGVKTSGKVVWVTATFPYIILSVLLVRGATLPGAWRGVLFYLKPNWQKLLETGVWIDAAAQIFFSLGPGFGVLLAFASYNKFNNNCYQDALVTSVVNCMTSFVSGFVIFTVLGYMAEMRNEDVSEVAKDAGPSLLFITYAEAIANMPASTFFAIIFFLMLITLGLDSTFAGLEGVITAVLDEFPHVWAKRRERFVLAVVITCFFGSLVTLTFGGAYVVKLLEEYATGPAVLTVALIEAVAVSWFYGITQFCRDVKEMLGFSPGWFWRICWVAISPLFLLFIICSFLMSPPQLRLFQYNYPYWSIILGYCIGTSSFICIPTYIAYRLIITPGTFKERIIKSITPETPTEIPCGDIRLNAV

For `COc1ccc([C@@]23CCC(=NO)C[C@@H]2N(C)CC3)cc1OC` (mixture of isomers) [Compound 037], the “conversion to mesembrine” value ([1]; acidic pH 2.0, 25 or 37° C.) was “converted to mesembrine” and the IC50 (SERT) was less than 50 nM.

In the case of `COc1ccc([C@@]23CCC(=O)C[C@@H]2N(C)CC3)cc1OC` [(−) mesembrine], the half-life in plasma [2] is given as “less than 2 hours”.

For `COc1ccc([C@@]23CCC(=O)C[C@@H]2N(C)CC3)cc1OC` [Compound 001, mesembrine, reference compound], the “Human Plasma Prodrug (%)” value [3] was 100.0%, the “Human Plasma Prodrug (%)” value was greater than 99% and the “Mouse Plasma Prodrug (%)” value [4] was 100.0%. For the same compound, the “Notes (stability in words)” value ([1]; PH = 7.4, 25° C., 0.5 mM, PBS (20 mM), 0-24 h) was “Stable”, the “Notes (stability in words)” value ([1]; PH = 7.4, 40° C., 0.5 mM, PBS (20 mM), 0-24 h) was “Stable” and the “hydrolysis” value ([1]; pH 2.0 in 0.01 M HCl to pH 7.4 in 20 mM PBS, 25° C. to 40° C.) was “did not further hydrolyze”. The “Notes (stability in words)” value ([1]; pH = 2.0, 25° C., 0.5 mM, 0.01M HCl, 0-24 h) was “Stable”, the “Notes (stability in words)” value ([1]; pH = 2.0, 40° C., 0.5 mM, 0.01M HCl, 0-24 h) was “Stable” and the “brain concentrations quantifiable up to” value [5] was 4 h. For the same compound, the Kp ([5]; male, C57BL/6, mouse, brain, read-out: brain exposure-Kp) was 2.55, the Tmax ([5]; male, C57BL/6, mouse, plasma, read-out: Tmax) was 30 min and the “001 quantifiable in brain up to” value ([6]; 2 mg/kg iv of the labelled compound in mice) was 60 min. For the same compound, the “plasma levels of 001” value ([6]; at 60, 120, 180 min, 2 mg/kg iv in mice) was “not detectable”, the “brain levels of 001” value ([6]; at 120, 180 min, 2 mg/kg iv in mice) was “not detectable” and the “001 quantifiable in brain up to” value [7, 14] was 60 min. The “001 quantifiable in plasma up to” value [7, 14] was 2 h, the “brain levels of 001” value ([7]; at 90, 120, 180 min, 10 mg/kg po in mice) was “not detectable” and the “plasma levels of 001” value ([7]; at 180 min, 10 mg/kg po in mice) was “not detectable”. It also gave a bioavailability ([7]; male, C57BL/6, mouse, plasma, po, 10 mg/kg) of less than 10%.

For `COc1ccc([C@@]23CCC(OC(C)=O)=C[C@@H]2N(C)CC3)cc1OC` [Compound 026, [(3aS,7aS)-3a-(3,4-dimethoxyphenyl)-1-methyl-3,4,5,7a-tetrahydro-2H-indol-6-yl] acetate], the “Condition 1 Conversion (%)” value ([8]; pH 1.5) was 0%, the “Conversion (%)” value [1] was 0% and the “Notes (stability in words)” value [1] was “Stable;”. The “Rat Plasma Prodrug (%)” value ([9]; time 0.0 min) was 100.0%, the “Rat Plasma Prodrug (%)” value ([9]; time 10 min) was 0.0% and the “Rat Plasma Prodrug (%)” value ([9]; time 30 min) was 0.0%. For the same compound, the “Rat Plasma Prodrug (%)” value ([9]; time 60 min) was 0.0%, the “Rat Plasma Prodrug (%)” value ([9]; time 120 min) was 0.0% and the “Rat Plasma Prodrug (%)” value ([9]; time 240 min) was 0.0%. For the same compound, the “Human Plasma Prodrug (%)” value ([10]; time 0.0 min) was 100.0%, the “Human Plasma Prodrug (%)” value ([10]; time 10 min) was 40.3% and the “Human Plasma Prodrug (%)” value ([10]; time 30 min) was 23.5%. The “Human Plasma Prodrug (%)” value ([10]; time 60 min) was 12.0%, the “Human Plasma Prodrug (%)” value ([10]; time 120 min) was 3.4% and the “Human Plasma Prodrug (%)” value ([10]; time 240 min) was 0.8%.

For `CCC(C)CC(=O)OC1=C[C@@H]2N(C)CC[C@]2(c2ccc(OC)c(OC)c2)CC1` (stereo partly drawn) [Compound 316, [(3aS,7aS)-3a-(3,4-dimethoxyphenyl)-1-methyl-3,4,5,7a-tetrahydro-2H-indol-6-yl]3-methyl pentanoate], the “Condition 1 Conversion (%)” value ([8]; SGF with pepsin pH 1.5, 37° C., 0.5 mM, time 1 min) was 0%, the “Condition 1 Conversion (%)” value ([8]; SGF with pepsin pH 1.5, 37° C., 0.5 mM, time 5 min) was 0% and the “Condition 1 Conversion (%)” value ([8]; SGF with pepsin pH 1.5, 37° C., 0.5 mM, time 30 min) was 0%. For the same compound, the “Condition 1 Conversion (%)” value ([8]; SGF with pepsin pH 1.5, 37° C., 0.5 mM, time 1 h) was 0%, the “Condition 1 Conversion (%)” value ([8]; SGF with pepsin pH 1.5, 37° C., 0.5 mM, time 4 h) was 0% and the “Condition 1 Conversion (%)” value ([8]; SGF with pepsin pH 1.5, 37° C., 0.5 mM, time 24 h) was 0%. For the same compound, the “conversion to 001 in vivo” value [11] was “converts to 001 in vivo”, the “Condition 2 Conversion (%)” value ([12]; time 1 min) was 0% and the “Condition 2 Conversion (%)” value ([12]; time 5 min) was 0%. For the same compound, the “Condition 2 Conversion (%)” value ([12]; time 30 min) was 0%, the “Condition 2 Conversion (%)” value ([12]; time 1 h) was 0% and the “Condition 2 Conversion (%)” value ([12]; time 4 h) was 0%. The “Condition 2 Conversion (%)” value ([12]; time 24 h) was 0%.

In the case of `COc1ccc([C@@]23CCC(=O)C[C@@H]2N(C)CC3)cc1OC` [mesembrine], the stability [13] is listed as “unstable”.
